From article PMC7835950 (Frontiers in Chemistry, 2021)
Like-named read-outs stand apart in the source and are kept apart here.

Target: T1, OGDH (Rattus norvegicus, UniProt Q5XI78)
T1 sequence (Q5XI78 41-1023): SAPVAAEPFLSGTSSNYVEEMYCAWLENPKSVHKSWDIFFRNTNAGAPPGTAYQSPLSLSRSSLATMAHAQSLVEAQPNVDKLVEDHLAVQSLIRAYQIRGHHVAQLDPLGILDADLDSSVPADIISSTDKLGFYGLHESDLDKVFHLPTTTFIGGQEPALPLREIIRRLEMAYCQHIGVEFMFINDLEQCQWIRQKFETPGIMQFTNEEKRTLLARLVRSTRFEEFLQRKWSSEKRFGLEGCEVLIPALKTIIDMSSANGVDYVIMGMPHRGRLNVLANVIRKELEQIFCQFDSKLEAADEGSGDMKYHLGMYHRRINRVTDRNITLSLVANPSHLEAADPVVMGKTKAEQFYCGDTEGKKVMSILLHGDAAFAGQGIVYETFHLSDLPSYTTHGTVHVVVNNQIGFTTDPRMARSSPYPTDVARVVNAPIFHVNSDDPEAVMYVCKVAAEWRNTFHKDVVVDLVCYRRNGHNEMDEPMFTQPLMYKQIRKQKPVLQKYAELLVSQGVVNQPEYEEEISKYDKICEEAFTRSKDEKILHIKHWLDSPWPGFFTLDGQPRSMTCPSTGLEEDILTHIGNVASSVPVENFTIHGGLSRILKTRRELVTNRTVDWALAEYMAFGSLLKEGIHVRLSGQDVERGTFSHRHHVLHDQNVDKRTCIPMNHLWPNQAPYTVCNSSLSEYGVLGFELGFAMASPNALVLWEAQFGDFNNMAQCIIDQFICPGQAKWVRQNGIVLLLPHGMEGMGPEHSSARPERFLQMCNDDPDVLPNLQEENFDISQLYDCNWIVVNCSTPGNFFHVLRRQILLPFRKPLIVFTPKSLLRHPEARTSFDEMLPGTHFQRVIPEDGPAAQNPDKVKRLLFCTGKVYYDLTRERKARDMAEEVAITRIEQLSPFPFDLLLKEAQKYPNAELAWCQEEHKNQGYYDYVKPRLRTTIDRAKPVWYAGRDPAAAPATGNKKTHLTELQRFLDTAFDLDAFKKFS
T1 sequence (Q01205 69-454 partner): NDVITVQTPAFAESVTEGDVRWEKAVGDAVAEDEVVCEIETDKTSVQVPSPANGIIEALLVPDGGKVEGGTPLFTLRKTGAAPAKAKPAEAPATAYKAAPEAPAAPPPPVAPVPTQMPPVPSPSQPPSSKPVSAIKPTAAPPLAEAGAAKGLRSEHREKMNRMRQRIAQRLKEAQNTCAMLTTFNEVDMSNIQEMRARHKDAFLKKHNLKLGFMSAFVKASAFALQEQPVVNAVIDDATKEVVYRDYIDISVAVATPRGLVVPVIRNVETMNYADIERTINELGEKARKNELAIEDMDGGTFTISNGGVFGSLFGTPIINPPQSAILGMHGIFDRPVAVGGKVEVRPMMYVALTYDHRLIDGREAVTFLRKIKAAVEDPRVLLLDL
T1 sequence (Q6P6R2 36-509 partner): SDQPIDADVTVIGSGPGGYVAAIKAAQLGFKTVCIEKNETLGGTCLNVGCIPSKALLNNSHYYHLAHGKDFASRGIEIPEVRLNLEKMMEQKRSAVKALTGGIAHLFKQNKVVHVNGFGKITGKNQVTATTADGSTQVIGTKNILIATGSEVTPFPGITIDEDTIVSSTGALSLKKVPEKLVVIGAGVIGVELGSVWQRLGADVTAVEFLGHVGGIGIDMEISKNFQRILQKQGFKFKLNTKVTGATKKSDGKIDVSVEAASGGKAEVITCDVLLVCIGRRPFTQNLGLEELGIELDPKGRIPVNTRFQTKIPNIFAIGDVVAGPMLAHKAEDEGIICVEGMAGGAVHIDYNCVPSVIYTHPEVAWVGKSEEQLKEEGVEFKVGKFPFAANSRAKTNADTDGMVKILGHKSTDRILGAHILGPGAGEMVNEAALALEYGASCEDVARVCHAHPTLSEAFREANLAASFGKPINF
Experiment: OGDH reaction (OG saturation) catalyzed by the enzyme preparation from rat heart
Type: biochemical
Design: the tissue fractions with the complexes enriched to a degree allowing for a robust detection of the enzymatic activities, have been used; from tissue; host or cells: rat heart
Description: Reactions were started by addition of the enzyme preparations to the assay media. The amount of enzyme preparations (0.074 mg protein for the preparation from liver and 0.023 mg protein for the preparation from heart) were chosen to induce the lowest reliably measured reaction rate (ΔA340 = 0.001/min) at 0.01 mM OA without the phosphonates.
Reaction rates were calculated from linear parts of the product accumulation curves (up to 10 min, dependent on the reaction rate), excluding the initial region, where mixing the reagents and solubilization of the preparation affected the optical density.
The former equation describes one type of the active sites. […] The assumption was based on the presence of the two enzymes, OGDH and OADH, in the employed preparations.
The Km and Amax values obtained in independent experiments using the non-linear and linear regression analyses of the experimental data, were averaged and presented as Mean ± Standard Error of Mean.
The values of Ki were determined as the ratio of the corresponding Intercepts to the Slopes. In the two-site model, the Ki(1) and Ki(2) were calculated separately from the linear approximations of Km,1eff/Amax,1eff vs. [I] and Km,2eff/Amax,2eff vs. [I] dependences, respectively. […] The Ki values obtained from the non-linear and linear regression analyses of the experimental data were averaged and presented as Mean ± Standard Error of Mean.

[1] = OGDH reaction, heart, Eadie-Hofstee, read-out: Ki, EH
[2] = OGDH reaction, heart, Lineweaver-Burk, read-out: Ki, LB
[3] = OGDH reaction, heart, Michaelis-Menten approximation, read-out: Ki, MM
[4] = OGDH reaction, heart, average of MM, LB, EH, read-out: Ki, Average
[5] = [I] 10 µM, OGDH reaction, heart
[6] = [I] 50 µM, OGDH reaction, heart
[7] = [I] 200 µM, OGDH reaction, heart
[8] = [I] 1000 µM, OGDH reaction, heart

| SMILES | Ki [1] | Ki [2] | Ki [3] | Ki [4] | Amax ([I] 0.5 µM, OGDH reaction, heart) | Amax ([I] 2 µM, OGDH reaction, heart) | Amax [5] | Amax [6] | Amax [7] | Amax [8] | Amax ([I] 5000 µM, OGDH reaction, heart) | Ki (Ki, Average, OGDH reaction, heart, average of MM, LB, EH) | Ki (Ki, LB, OGDH reaction, heart, Lineweaver-Burk) | Ki (Ki, MM, OGDH reaction, heart, Michaelis-Menten approximation) | Ki (rounded from Table 2 (heart and liver preparations), read-out: Ki as OGDH inhibitor (order of magnitude)) |
| --- | --- | --- | --- | --- | --- | --- | --- | --- | --- | --- | --- | --- | --- | --- | --- |
| O=C(O)CCCCC(=O)P(=O)(O)O [AP, adipoyl phosphonate] | 1760 ± 77 µM | 2140 ± 517 µM | 2490 ± 341 µM | 2130 ± 211 µM | 0.70 ± 0.02 µmol/min per mg of protein | 0.72 ± 0.01 µmol/min per mg of protein | 0.62 ± 0.01 µmol/min per mg of protein | 0.67 ± 0.01 µmol/min per mg of protein | 0.70 ± 0.02 µmol/min per mg of protein | 0.63 ± 0.03 µmol/min per mg of protein | 0.61 ± 0.04 µmol/min per mg of protein | – | – | – | – |
| O=C(O)CCCC(=O)P(=O)(O)O [GP, glutaryl phosphonate] | 49 ± 8 µM | 12 ± 1 µM | 39 ± 2 µM | 33 ± 11 µM | – | 0.67 ± 0.02 µmol/min per mg of protein | 0.76 ± 0.02 µmol/min per mg of protein | 0.79 ± 0.03 µmol/min per mg of protein | 0.86 ± 0.05 µmol/min per mg of protein | – | – | – | – | – | – |
| O=C(O)CCC(=O)P(=O)(O)O [SP, succinyl phosphonate] | 15 ± 1 µM | – | – | – | – | – | 0.72 ± 0.01 µmol/min per mg of protein | 0.71 ± 0.02 µmol/min per mg of protein | 0.45 ± 0.11 µmol/min per mg of protein | 0.54 ± 0.07 µmol/min per mg of protein | – | 16 ± 2 µM | 13 ± 2 µM | 20 ± 1 µM | 10 µM |
